Measured values as given in ChEMBL document CHEMBL4422652, “Synthesis and biological evaluation of novel oleanolic acid analogues as potential α-glucosidase inhibitors” (Eur J Med Chem, 2019).
Calls of active or inactive are those of the source. The calls are words filed in the database; no cut-off is given here.

How the values were obtained:
[1] = Inhibition of baker's yeast alpha-glucosidase using phenol-alphaD-glycopyranoside as substrate preincubated for 10 mins followed by substrate addition and measured after 30 mins; design: species or system Saccharomyces cerevisiae
Saccharomyces cerevisiae = assay: Non-competitive inhibition of baker's yeast alpha-glucosidase assessed as Km for substrate using varying levels of phenol-alphaD-glycopyranoside as substrate preincubated for 10 mins followed by substrate addition and measured after 30 mins by double reciprocal plot analysis
[2] = Non-competitive inhibition of baker's yeast alpha-glucosidase using varying levels of phenol-alphaD-glycopyranoside as substrate preincubated for 10 mins followed by substrate addition and measured after 30 mins by double reciprocal plot analysis; design: species or system Saccharomyces cerevisiae
NIH3T3 = assay: Cytotoxicity against mouse 3T3 cells assessed as growth inhibition measured after 48 hrs by MTT assay; type: cell-based; conditions: NIH3T3, 48 h
Mus musculus [3] = assay: Hypoglycemic activity in streptozocin-induced diabetic Kunming mouse assessed as reduction in blood glucose level at 50 mg/kg, po measured at 9 hrs post dose; type: functional, organism-based
Mus musculus [4] = assay: Hypoglycemic activity in streptozocin-induced diabetic Kunming mouse assessed as reduction in blood glucose level at 50 mg/kg, po measured at 2 hrs post dose; type: functional, organism-based
Mus musculus [5] = assay: Hypoglycemic activity in streptozocin-induced diabetic Kunming mouse assessed as blood glucose level at 50 mg/kg, po administered once daily for 18 days measured on day 1 post dose (reference value: 18.86 +/- 0.7 mM); type: functional
Mus musculus [6] = assay: Hypoglycemic activity in streptozocin-induced diabetic Kunming mouse assessed as blood glucose level at 50 mg/kg, po administered once daily for 18 days measured on day 6 post dose (reference value: 22.31 +/- 1.05 mM); type: functional
Mus musculus [7] = assay: Hypoglycemic activity in streptozocin-induced diabetic Kunming mouse assessed as blood glucose level at 50 mg/kg, po administered once daily for 18 days measured on day 12 post dose (reference value: 23.09 +/- 1.45 mM); type: functional
Mus musculus [8] = assay: Hypoglycemic activity in streptozocin-induced diabetic Kunming mouse assessed as blood glucose level at 50 mg/kg, po administered once daily for 18 days measured on day 12 post dose (reference value: 23.27 +/- 1.03 mM); type: functional
[9] = Toxicity in streptozocin-induced diabetic Kunming mouse assessed as effect on body weight at 50 mg/kg, po administered once daily for 18 days measured every 6 days starting from day 1 during compound dosing; type: organism-based; conditions: in vivo
Mus musculus [10] = assay: Hypoglycemic activity in streptozocin-induced diabetic Kunming mouse assessed as reduction in blood glucose level at 50 mg/kg, po treated 30 mins prior to glucose challenge and measured up to 210 mins by OGTT; type: functional, organism-based
Mus musculus [11] = assay: Hypoglycemic activity in streptozocin-induced diabetic Kunming mouse assessed as reduction in blood glucose AUC at 50 mg/kg, po treated 30 mins prior to glucose challenge and measured up to 210 mins by OGTT; type: functional, organism-based
Mus musculus [12] = assay: Hypoglycemic activity in streptozocin-induced diabetic Kunming mouse assessed as reduction in blood glucose level at 50 mg/kg, po measured at 7 hrs post dose; type: functional, organism-based
[13] = Inhibition of baker's yeast alpha-glucosidase using PNPG as substrate preincubated for 15 mins followed by substrate addition and measured after 5 mins by spectrophotometric method; design: species or system Saccharomyces cerevisiae

`CC1(C)CC[C@@]23CC[C@]4(C)[C@](OC2=O)([C@H](F)C[C@@H]2[C@@]5(C)C/C(=C\c6ccccc6Cl)C(=O)C(C)(C)[C@@H]5CC[C@]24C)[C@@H]3C1` showed an IC50 [1] of 1.54 µM.

`CC1(C)CC[C@@]23CC[C@]4(C)[C@](OC2=O)([C@H](F)C[C@@H]2[C@@]5(C)CCC(=O)C(C)(C)[C@@H]5CC[C@]24C)[C@@H]3C1` showed an IC50 [1] of 16.7 µM.

`CC1(C)CC[C@@]23CC[C@]4(C)[C@](OC2=O)([C@H](F)C[C@@H]2[C@@]5(C)C/C(=C\c6ccc(Br)cc6)C(=O)C(C)(C)[C@@H]5CC[C@]24C)[C@@H]3C1` gave an IC50 [1] of 1.06 µM.

Compound `COc1ccc(/C=C2\C[C@]3(C)[C@H]4C[C@@H](F)[C@]56OC(=O)[C@@]7(CCC(C)(C)C[C@H]75)CC[C@@]6(C)[C@]4(C)CC[C@H]3C(C)(C)C2=O)c(OC)c1` has an IC50 [1] of 1.92 µM.

`CC1(C)CC[C@@]23CC[C@]4(C)[C@](OC2=O)([C@H](F)C[C@@H]2[C@@]5(C)C/C(=C\c6ccc(-c7ccccn7)cc6)C(=O)C(C)(C)[C@@H]5CC[C@]24C)[C@@H]3C1` gave an IC50 [1] of 3.67 µM.

Compound `CC1(C)CC[C@@]23CC[C@]4(C)[C@](OC2=O)([C@H](F)C[C@@H]2[C@@]5(C)C/C(=C\c6ccc(-n7cncn7)cc6)C(=O)C(C)(C)[C@@H]5CC[C@]24C)[C@@H]3C1` has an IC50 [1] of 3.18 µM.

`CC1(C)CC[C@@]23CC[C@]4(C)[C@](OC2=O)([C@H](F)C[C@@H]2[C@@]5(C)C/C(=C\c6ccc(Cl)cn6)C(=O)C(C)(C)[C@@H]5CC[C@]24C)[C@@H]3C1` gave an IC50 [1] of 0.72 µM, a Km (Saccharomyces cerevisiae) of 120 µM and a Ki [2] of 1.19 µM. The IC50 (NIH3T3) was > 300 µM, the Activity (Mus musculus [3]) was “Active” and the Activity (Mus musculus [4]) was “Active”. For the same compound, the Activity (Mus musculus [5]) was 17.45 mM, the Activity (Mus musculus [6]) was 20.51 mM and the Activity (Mus musculus [7]) was 18.29 mM. For the same compound, the Activity (Mus musculus [8]) was 13.13 mM, the Activity [9] was “Non-Toxic” and the Activity (Mus musculus [10]) was “Active”. For the same compound, the Activity (Mus musculus [11]) was “Active”.

Work on `CC1(C)CC[C@@]23CC[C@]4(C)[C@](OC2=O)([C@H](F)C[C@@H]2[C@@]5(C)C/C(=C\c6ccccc6F)C(=O)C(C)(C)[C@@H]5CC[C@]24C)[C@@H]3C1` yielded an IC50 [1] of 1.74 µM.

In the case of `COc1cccc(/C=C2\C[C@]3(C)[C@H]4C[C@@H](F)[C@]56OC(=O)[C@@]7(CCC(C)(C)C[C@H]75)CC[C@@]6(C)[C@]4(C)CC[C@H]3C(C)(C)C2=O)c1`, the IC50 [1] is reported as 3.29 µM.

For `COc1ccc(/C=C2\C[C@]3(C)[C@H]4C[C@@H](F)[C@]56OC(=O)[C@@]7(CCC(C)(C)C[C@H]75)CC[C@@]6(C)[C@]4(C)CC[C@H]3C(C)(C)C2=O)cc1`, the IC50 [1] was 0.33 µM, the Km (Saccharomyces cerevisiae) was 120 µM and the Ki [2] was 0.52 µM. For the same compound, the IC50 (NIH3T3) was > 300 µM, the Activity (Mus musculus [12]) was “Active” and the Activity (Mus musculus [5]) was 18.61 mM. The Activity (Mus musculus [6]) was 19.96 mM, the Activity (Mus musculus [7]) was 17.49 mM and the Activity (Mus musculus [8]) was 13.74 mM. The Activity [9] was “Non-Toxic”, the Activity (Mus musculus [10]) was “Active” and the Activity (Mus musculus [11]) was “Active”.

With `C[C@H]1O[C@H](O[C@H]2[C@H](O)[C@@H](O)[C@@H](O[C@H]3[C@H](O)[C@@H](O)C(O)O[C@@H]3CO)O[C@@H]2CO)[C@H](O)[C@@H](O)[C@@H]1N[C@H]1C=C(CO)[C@@H](O)[C@H](O)[C@H]1O` (stereo not given in full) [ACARBOSE] the IC50 [1] was 579 µM, the Activity (Mus musculus [5]) was 19.14 mM and the Activity (Mus musculus [6]) was 22.44 mM. The Activity (Mus musculus [7]) was 20.41 mM and the Activity (Mus musculus [8]) was 15.48 mM.

Compound `CC1(C)CC[C@@]23CC[C@]4(C)[C@](OC2=O)([C@H](F)C[C@@H]2[C@@]5(C)C/C(=C\c6ccc(C(F)(F)F)nc6)C(=O)C(C)(C)[C@@H]5CC[C@]24C)[C@@H]3C1` has an IC50 [1] of 1.86 µM.

In the case of `CC1(C)CC[C@@]23CC[C@]4(C)[C@](OC2=O)([C@H](F)C[C@@H]2[C@@]5(C)C/C(=C\c6ccccc6)C(=O)C(C)(C)[C@@H]5CC[C@]24C)[C@@H]3C1`, the IC50 [1] is reported as 3.43 µM.

In the case of `CC1(C)CC[C@@]23CC[C@]4(C)[C@](OC2=O)([C@H](F)C[C@@H]2[C@@]5(C)C/C(=C\c6cccc(Cl)c6)C(=O)C(C)(C)[C@@H]5CC[C@]24C)[C@@H]3C1`, the IC50 [1] is reported as 0.98 µM, the Km (Saccharomyces cerevisiae) is reported as 120 µM and the Ki [2] is reported as 1.49 µM. For the same compound, the IC50 (NIH3T3) was > 300 µM, the Activity (Mus musculus [3]) was “Active” and the Activity (Mus musculus [4]) was “Active”. It also gave an Activity (Mus musculus [5]) of 20.66 mM, an Activity (Mus musculus [6]) of 24.39 mM and an Activity (Mus musculus [7]) of 23.51 mM. The Activity (Mus musculus [8]) was 17.52 mM, the Activity [9] was “Non-Toxic” and the Activity (Mus musculus [10]) was “Active”. For the same compound, the Activity (Mus musculus [11]) was “Active”.

`Cc1ccc(/C=C2\C[C@]3(C)[C@H]4C[C@@H](F)[C@]56OC(=O)[C@@]7(CCC(C)(C)C[C@H]75)CC[C@@]6(C)[C@]4(C)CC[C@H]3C(C)(C)C2=O)cc1` gave an IC50 [1] of 1.29 µM.

Work on `CC1(C)CC[C@]2(C(=O)Oc3ccc(C(=O)/C=C/c4ccc(Br)cc4)cc3)CC[C@]3(C)C(=CC[C@@H]4[C@@]5(C)CCC(=O)C(C)(C)[C@@H]5CC[C@]43C)[C@@H]2C1` yielded an IC50 [13] of 2.2 µM.
